Values joined by “and” are separate entries in the source; they are usually repeats but may differ in a detail not shown here. Identical values can stand only once. Toxic doses and inconclusive results are not listed. Rule as the data show it: active = T/C of 150% or more; inactive = T/C below 125%.
Test system: L1210 leukemia ip in BDF1 mice, survival T/C
Assay: NCI In Vivo Anticancer Drug Screen. Data for tumor model L1210 Leukemia (intraperitoneal) in B6D2F1 (BDF1) mice
Conditions: endpoint: mean survival time, higher = longer survival
In short: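 Survival endpoint. Drug-treated group vs vehicle group, expressed as T divided by C. Tumor passaged by transplantation.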

[1] = dose: 100.0 mg/kg/injection, schedule: Q04DX003 (ip), vehicle: Klucel (hydroxypropylcellulose) (HPC)
[2] = dose: 200.0 mg/kg/injection, schedule: Q04DX003 (ip), vehicle: Klucel (hydroxypropylcellulose) (HPC)
[3] = dose: 400.0 mg/kg/injection, schedule: Q04DX003 (ip), vehicle: Klucel (hydroxypropylcellulose) (HPC)
[4] = dose: 100.0 mg/kg/injection, schedule: Q01DX009 (ip), vehicle: Klucel (hydroxypropylcellulose) (HPC)
[5] = dose: 400.0 mg/kg/injection, schedule: Q01DX009 (ip), vehicle: Klucel (hydroxypropylcellulose) (HPC)
[6] = dose: 200.0 mg/kg/injection, schedule: Q01DX009 (ip), vehicle: Klucel (hydroxypropylcellulose) (HPC)
[7] = dose: 100.0 mg/kg/injection, schedule: Q01DX001 (ip), vehicle: saline
[8] = dose: 200.0 mg/kg/injection, schedule: Q01DX001 (ip), vehicle: saline
[9] = dose: 400.0 mg/kg/injection, schedule: Q01DX001 (ip), vehicle: saline

Measured: T/C

CC(C(Nc1ccc(C(=O)O)cc1)C(F)(F)C(F)(F)C(F)(F)F)[N+](=O)[O-] (stereo not drawn)
inactive: [1] 88 % of control | [2] 89 % of control | [3] 98 % of control

CC(=O)N(C)N=Nc1ccc(C)cc1
inactive: dose: 25.0 mg/kg/injection, schedule: Q01DX009 (ip), vehicle: Klucel (hydroxypropylcellulose) (HPC) 116 % of control | dose: 25.0 mg/kg/injection, schedule: Q04DX003 (ip), vehicle: other 101 % of control | dose: 50.0 mg/kg/injection, schedule: Q01DX009 (ip), vehicle: Klucel (hydroxypropylcellulose) (HPC) 110 % of control | dose: 50.0 mg/kg/injection, schedule: Q04DX003 (ip), vehicle: other 106 % of control | [4] 102 % of control and 108 % of control | dose: 100.0 mg/kg/injection, schedule: Q04DX003 (ip), vehicle: other 118 % of control | dose: 200.0 mg/kg/injection, schedule: Q04DX003 (ip), vehicle: other 123 % of control | [5] 105 % of control and 123 % of control

CC(C)=CC[N+]12CN3CN(CN(C3)C1)C2
inactive: dose: 100.0 mg/kg/injection, schedule: Q04DX003 (ip), vehicle: saline 97 % of control | dose: 200.0 mg/kg/injection, schedule: Q04DX003 (ip), vehicle: saline 103 % of control | dose: 400.0 mg/kg/injection, schedule: Q04DX003 (ip), vehicle: saline 110 % of control

O=CNC(CSC(=O)c1ccccc1)C(=O)O (stereo not drawn)
inactive: [4] 101 % of control | [1] 97 % of control | [6] 101 % of control | [2] 97 % of control | [3] 94 % of control

COc1ccc(OC)c(NC(=O)Nc2c(C)n(C)n(-c3ccccc3)c2=O)c1
inactive: [4] 93 % of control | [1] 98 % of control | [6] 93 % of control | [2] 93 % of control | [5] 101 % of control | [3] 90 % of control

CC1(C)CC2(CC3(C1)SCCS3)SCCS2
inactive: [7] 94 % of control | dose: 100.0 mg/kg/injection, schedule: Q04DX003 (ip), vehicle: acetone 89 % of control | [8] 97 % of control | dose: 200.0 mg/kg/injection, schedule: Q04DX003 (ip), vehicle: acetone 96 % of control | [9] 89 % of control | dose: 400.0 mg/kg/injection, schedule: Q04DX003 (ip), vehicle: acetone 91 % of control

Cc1ccccc1C(=O)Nc1ccccc1
inactive: dose: 50.0 mg/kg/injection, schedule: Q01DX009 (ip), vehicle: saline 103 % of control | dose: 100.0 mg/kg/injection, schedule: Q01DX009 (ip), vehicle: saline 100 % of control | dose: 200.0 mg/kg/injection, schedule: Q01DX009 (ip), vehicle: saline 103 % of control

O=C1C=C2CCCCC2C1 (stereo not drawn)
inactive: dose: 50.0 mg/kg/injection, schedule: Q01DX009 (ip), vehicle: saline with Tween-80 100 % of control | dose: 100.0 mg/kg/injection, schedule: Q01DX009 (ip), vehicle: saline with Tween-80 88 % of control

COCCN=Cc1ccc(N(C)C)cc1
inactive: dose: 100.0 mg/kg/injection, schedule: Q04DX002 (ip), vehicle: saline with Tween-80 103 % of control | dose: 200.0 mg/kg/injection, schedule: Q04DX002 (ip), vehicle: saline with Tween-80 100 % of control | dose: 400.0 mg/kg/injection, schedule: Q04DX002 (ip), vehicle: saline with Tween-80 100 % of control

CN(CCCN1C(=O)c2ccccc2C1=O)c1ccc(N=O)cc1
inactive: dose: 25.0 mg/kg/injection, schedule: Q01DX001 (ip), vehicle: Klucel (hydroxypropylcellulose) (HPC) 101 % of control | dose: 50.0 mg/kg/injection, schedule: Q01DX001 (ip), vehicle: Klucel (hydroxypropylcellulose) (HPC) 95 % of control | dose: 100.0 mg/kg/injection, schedule: Q01DX001 (ip), vehicle: Klucel (hydroxypropylcellulose) (HPC) 92 % of control and 91 % of control

O=C(OCC(O)C(O)C(O)C(SCc1ccccc1)SCc1ccccc1)c1ccc([N+](=O)[O-])cc1 (stereo not drawn)
inactive: [7] 93 % of control | [8] 94 % of control | [9] 94 % of control

COC1C(O)C(O)C(O)C(O)C1OS(=O)(=O)c1ccc(C)cc1 (stereo not drawn)
inactive: dose: 375.0 mg/kg/injection, schedule: Q01DX001 (ip), vehicle: carboxymethylcellulose (CMC) 105 % of control | dose: 750.0 mg/kg/injection, schedule: Q01DX001 (ip), vehicle: carboxymethylcellulose (CMC) 107 % of control | dose: 1500.0 mg/kg/injection, schedule: Q01DX001 (ip), vehicle: carboxymethylcellulose (CMC) 98 % of control
